# Entries after “also recorded” stand apart in the source; their conditions may differ.
# Legend:
# [1] = test system: CuFi-1 epithelial monolayers; test: Airway surface liquid (ASL) pH assay, SNARF-dextran ratiometric dye, CuFi-1 monolayers; assay type: cell-based, human
# Protocol: Airway surface liquid (ASL) pH assay. ASL pH was studied using an established fluorescent dye assay using the Dextran, SNARF®-1, 70,000 MW ratiometric dye (Thermo Fisher D3304). Mature, differentiated CuFi-1 (ATCC CRL-4013) epithelial monolayers were grown on Corning Costar 0.4 μm Transwell Clear Polyester Membrane cell culture inserts (Corning 3470). CuFi epithelia were treated with perfluorinated hydrocarbon (PFC) vehicle, AmB, AmB:Chol or Chol and incubated for the time course of the experiment at 37° C. On the day of imaging, 100 μL of a suspension of SNARF-dextran in PFC was added to the apical side of the monolayers. Monolayers were imaged 2 hours after dye addition. The monolayers were placed on 100 μL of Ultroser G media on a 10 mm glass bottom Fluorodish for imaging (World Precision Instruments). Five images per membrane were taken on a Zeiss LSM 880 confocal microscope at 40× water immersion. These images were analyzed using ImageJ to determine the green to red ratio of each image. Solutions of known pH were used to calibrate pH detection using this system. […]
# [2] = test system: non-CF primary human lung epithelia; test: ASL pH in non-CF (control) primary human lung epithelia; assay type: cell-based; conditions: apical
# Protocol: (§1) Airway surface liquid (ASL) pH assay. ASL pH was studied using an established fluorescent dye assay using the Dextran, SNARF®-1, 70,000 MW ratiometric dye (Thermo Fisher D3304). Mature, differentiated CuFi-1 (ATCC CRL-4013) epithelial monolayers were grown on Corning Costar 0.4 μm Transwell Clear Polyester Membrane cell culture inserts (Corning 3470). CuFi epithelia were treated with perfluorinated hydrocarbon (PFC) vehicle, AmB, AmB:Chol or Chol and incubated for the time course of the experiment at 37° C. On the day of imaging, 100 μL of a suspension of SNARF-dextran in PFC was added to the apical side of the monolayers. Monolayers were imaged 2 hours after dye addition. The monolayers were placed on 100 μL of Ultroser G media on a 10 mm glass bottom Fluorodish for imaging (World Precision Instruments). Five images per membrane were taken on a Zeiss LSM 880 confocal microscope at 40× water immersion. These images were analyzed using ImageJ to determine the green to red ratio of each image. Solutions of known pH were used to calibrate pH detection using this system.
# Non-CF (control) and CF primary human lung epithelia were prepared and maintained in vitro as previously described. Pezzulo A A et al. (2012) Nature 487: 109-113. […]
# [3] = test system: CuFi-4 (ΔF508/G551D) epithelia; test: ASL pH in CuFi-4 epithelia; assay type: cell-based, human
# Protocol: as §1
# Ivacaftor is a clinically approved and effective drug to treat cystic fibrosis, and it was used as a control in some of the experiments. […]
# [4] = test system: CF primary human lung epithelia; test: Change in short-circuit current in CF primary human lung epithelia after AmB treatment; assay type: cell-based; conditions: 2 μM, 48 h
# Protocol: Non-CF (control) and CF primary human lung epithelia were prepared and maintained in vitro as previously described. Pezzulo A A et al. (2012) Nature 487: 109-113. For example, epithelial cells were isolated from the trachea and bronchi by enzymatic digestion, seeded onto collagen-coated semi-permeable membranes (0.6 cm^2 Millicell-PCF; Millipore, Bedford, MA), and grown at the air-liquid interface as previously described in Karp P H et al. (2002) In Wise C., Epithelial Cell Culture Protocols, Humana Press, Inc. 188: 115-137. Culture medium, a 1:1 mixture of Dulbecco's modified Eagle's medium and Ham's F12 medium (DMEM/F12), was supplemented with 2% Ultroser G (PALL France SAS; Saint Germain-en-Laye, France). Differentiated epithelia were used at least 14 days after seeding.
# These cells were treated with AmB at a final concentration of 2 μM for 48 h, and then change in short-circuit current was measured.
# [5] = test system: CuFi-1 monolayers; test: Ussing chamber response to forskolin/IBMX CFTR activation in CuFi-1 monolayers; assay type: cell-based, human; conditions: after 48 hr treatment
# Protocol: After observing this decrease of efficacy with increasing dose, AmB was pre-complexed with cholesterol to mitigate its potentially disruptive sterol binding activity, following the mechanistic model laid out in previous studies. Gray K C et al. (2012) Proc Natl Acad Sci USA 109(7): 2234-2239; Anderson T M et al. (2014) Nat Chem Biol 10(5): 400-406. The activity of an AmB:cholesterol complex was tested, and this complex was able to extend the effective dose of ASL pH rescue out to 100 μM (FIG. 21). After 48 hr treatment with AmB, CuFi-1 monolayers were evaluated in an Ussing chamber.
# [6] = test system: CF primary human lung epithelia; test: ASL bacterial killing in CF primary human lung epithelia (S. aureus); assay type: cell-based; conditions: 2 μM
# Protocol: CF primary human lung epithelia were prepared and maintained in vitro as previously described. Pezzulo A A et al. (2012) Nature 487: 109-113. These cells were treated with AmB or C35deOAmB at a final concentration of 2 μM for 1 minute, then washed and maintained in culture for 48 h, and then bacterial killing was measured.
# Increased ASL viscosity, a downstream effect of ASL pH acidification, contributes to the inability to clear mucus and bacteria from the lung. […] ASL pH is also closely correlated to the ability of antimicrobial proteins in the ASL to enact bacterial killing. To connect the observed AmB-mediated increase in ASL pH with a meaningful increase in ASL bacterial killing, AmB treated epithelia were tested against a human strain of S. aureus. Pezzulo A A et al. (2012) Nature 487: 109-113.
# [7] = test system: CuFi-1 epithelial monolayers; test: pH-stat apical chamber alkalization in CuFi-1 monolayers; assay type: cell-based, human
# Protocol: To directly probe whether AmB-mediated bicarbonate transport causes the ASL pH increase, pH-stat experiments were performed in large NuLi and CuFi-1 epithelial monolayers either in the presence of bicarbonate or in bicarbonate-free solution. Cho, D Y, et al., (2009) Am J Rhinol Allergy 23, e10-13; Cho, D Y, et al., (2011) Int Forum Allergy Rhinol 1, 123-127. […] To address the potential role of proton absorption in the alkalization of the ASL, these experiments were repeated in bicarbonate-free buffer.
# [8] = test system: protein ion channel-deficient yeast (trk1Δtrk2Δ); conditions: cited from earlier work
# [9] = test system: yeast; conditions: cited from earlier work
smiles,measurement,setting,value
"C[C@@H]1[C@H](O)[C@@H](C)/C=C/C=C/C=C/C=C/C=C/C=C/C=C/[C@H](O[C@@H]2O[C@H](C)[C@@H](O)[C@H](N)[C@@H]2O)C[C@@H]2O[C@](O)(C[C@@H](O)C[C@@H](O)[C@H](O)CC[C@@H](O)C[C@@H](O)CC(=O)O[C@H]1C)C[C@H](O)[C@H]2C(=O)O [AmB, amphotericin B]","effect on ASL pH, apical addition",[1]; CuFi-1,increase ASL pH; also recorded: efficacious
same,"effect on ASL pH, basolateral addition","[1]; CuFi-1, basolateral addition",unable to increase ASL pH; also recorded: not basolateral
same,drop of ASL pH below the starting pH,"[1]; Example 7, FIG. 8, by 25 μM and beyond",about 0.05 pH units
same,dose up to which ASL pH increased,"[1]; Example 7, FIG. 8, suspension in PFC",2 μM
same,ASL pH at high dose,"[1]; Example 14, FIG. 21, by 25 μM",back down to the starting pH
same,dose at which ASL pH increase peaks,"[1]; Example 14, FIG. 21, suspension in PFC",5 μM
same,effect on ASL pH of non-CF epithelia,[2],absence of effect; also recorded: no effect
same,effect on ASL pH,[3],increase ASL pH
same,change in short-circuit current compared to untreated CF epithelia,[4],no significant difference
same,increase in short circuit current in response to forskolin/IBMX CFTR activation,[5],neither untreated nor AmB-treated CuFi-1 monolayers had an increase in short circuit current; also recorded: no increase in short circuit current
same,percent killing (ASL bacterial killing),"[6]; killing measured after 48 h, control about 25 percent",about 40%
same,effect on ASL bacterial killing,[6]; vs control,increased ASL bacterial killing
same,apical chamber alkalization,[7]; bicarbonate-free buffer,did not increase apical chamber alkalization; also recorded: No change in apical chamber alkalization
same,apical chamber alkalization,[7]; in the presence of basolateral bicarbonate,increase apical chamber alkalization
same,yeast growth rescue,[8],restored to normal phenotype (growth); also recorded: restore growth
same,fungicidal activity / toxicity to yeast,[9],highly toxic to yeast

# Reference: patent US11850256B2, “Small molecule-mediated restoration of airway surface physiology in human cystic fibrosis lung epithelia” (The Board of Trustees of the University of Illinois, priority 2016, dated 2023)
